Measurements published in patent publication US20260184663A1, “INDENE COMPOUNDS, PHARMACEUTICAL COMPOSITIONS THEREOF, AND THEIR THERAPEUTIC APPLICATIONS” (NucMito Pharmaceuticals co. Ltd., priority 2022, published 2026).

Legend:
Assay type in all cases: cell-based
[1] = tested on: B16F10 (malignant melanoma); experiment: Antiproliferative activity (CCK-8 cell viability), B16F10; conditions: Mus musculus, 72 h; for inhibition at 3.3 µM: B16-F10, Compound concentration: 3.3 μM; for inhibition at 3.3 µM / inhibition at 10 µM: read-out: Antiproliferative activity in cancerous cells, B16F10 (inhibition of cell growth); for inhibition at 10 µM: B16-F10, Compound concentration: 10 μM; for inhibition at 30 µM: B16-F10, Compound concentration: 30 μM, read-out: Antiproliferative activity in cancerous cells, B16F10
Procedure, shortened: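 Cell growth inhibition was measured in B16F10 malignant melanoma cells with a Cell Counting Kit-8 viability assay. Cells were maintained in DMEM plus 10% fetal bovine serum, seeded at 2,000-5,000 cells/well in 96-well plates, and treated for 72 h at 37° C. Viability was expressed relative to DMSO-treated vehicle control wells.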

[2] = tested on: alpha-smooth muscle actin (α-SMA); experiment: Inhibition of TGF-β induced expression of alpha-smooth muscle actin (α-SMA) in CFSC cells (western blot); conditions: compound at 10 μM, TGF-β (10 ng/mL), 24 hours, band intensity vs TGF-β only
Procedure, shortened: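 Values are percent reduction of α-SMA band intensity relative to cells given TGF-β alone, quantified by Western blot densitometry with β-actin probed. Compound was applied at 10 μM alongside 10 ng/mL TGF-β to serum-free CFSC cultures for 24 h at 37 °C.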

[3] = tested on: A431 (epidermoid carcinoma); experiment: Antiproliferative activity (CCK-8 cell viability), A431; conditions: Homo sapiens, 72 h; for inhibition at 3.3 µM: A-431, Compound concentration: 3.3 μM; for inhibition at 3.3 µM / inhibition at 10 µM: read-out: Antiproliferative activity in cancerous cells, A431 (inhibition of cell growth); for inhibition at 10 µM: A-431, Compound concentration: 10 μM; for inhibition at 30 µM: A-431, Compound concentration: 30 μM, read-out: Antiproliferative activity in cancerous cells, A431
Procedure, shortened: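 This growth inhibition assay used A431 cells maintained in Dulbecco's modified Eagle's medium plus 10% fetal bovine serum. Cells were seeded in 96-well plates, treated with compound for 72 h at 37° C., and then given 10 μL CCK-8 solution. After a further 4 h, absorbance was read at 450 nm.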

[4] = tested on: A549 (lung adenocarcinoma); experiment: Antiproliferative activity (CCK-8 cell viability), A549; conditions: Homo sapiens, 72 h; for inhibition at 3.3 µM: Compound concentration: 3.3 μM; for inhibition at 3.3 µM / inhibition at 10 µM: read-out: Antiproliferative activity in cancerous cells, A549 (inhibition of cell growth); for inhibition at 10 µM: Compound concentration: 10 μM; for inhibition at 30 µM: Compound concentration: 30 μM, read-out: Antiproliferative activity in cancerous cells, A549
Procedure, shortened: (§1)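 Growth inhibition graded in bands from percent viability against DMSO vehicle, read as CCK-8 absorbance at 450 nm. Compound tested at 3.3, 10 or 30 μM for 72 h, 37 °C; media contained 10% FBS: DMEM for HepG2/SW480, MEM for HeLa, F-12K for A549.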

HepG2 (liver cancer) = experiment: Antiproliferative activity (CCK-8 cell viability), HepG2; conditions: Homo sapiens, 72 h; for inhibition at 3.3 µM: Compound concentration: 3.3 μM; for inhibition at 3.3 µM / inhibition at 10 µM: read-out: Antiproliferative activity in cancerous cells, HepG2 (inhibition of cell growth); for inhibition at 10 µM: Compound concentration: 10 μM; for inhibition at 30 µM: Compound concentration: 30 μM, read-out: Antiproliferative activity in cancerous cells, HepG2
Procedure, shortened: as §1

SW480 (colon cancer) = experiment: Antiproliferative activity (CCK-8 cell viability), SW480; conditions: Homo sapiens, 72 h; for inhibition at 3.3 µM: Compound concentration: 3.3 μM; for inhibition at 3.3 µM / inhibition at 10 µM: read-out: Antiproliferative activity in cancerous cells, SW480 (inhibition of cell growth); for inhibition at 10 µM: Compound concentration: 10 μM
Procedure, shortened: as §1

[5] = tested on: MDA-MB-231 (breast cancer); experiment: Antiproliferative activity (CCK-8 cell viability), MDA-MB-231; conditions: Homo sapiens, 72 h; for inhibition at 3.3 µM: Compound concentration: 3.3 μM; for inhibition at 3.3 µM / inhibition at 10 µM: read-out: Antiproliferative activity in cancerous cells, MDA-MB-231 (inhibition of cell growth); for inhibition at 10 µM: Compound concentration: 10 μM
Procedure, shortened: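 Growth inhibition of human MDA-MB-231 breast cancer cells was assessed with a Cell Counting Kit-8. Cells cultured in DMEM plus 10% FBS were seeded at 2,000-5,000 cells/well, treated after attachment, and kept 72 h at 37° C. CCK-8 solution (10 μL) was added for 4 h, and absorbance at 450 nm was compared with DMSO-treated controls.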

HeLa (cervical cancer) = experiment: Antiproliferative activity (CCK-8 cell viability), HeLa; conditions: Homo sapiens, 72 h; for inhibition at 3.3 µM: Compound concentration: 3.3 μM; for inhibition at 3.3 µM / inhibition at 10 µM: read-out: Antiproliferative activity in cancerous cells, HELA (inhibition of cell growth); for inhibition at 10 µM: Compound concentration: 10 μM; for inhibition at 30 µM: Compound concentration: 30 μM, read-out: Antiproliferative activity in cancerous cells, HELA
Procedure, shortened: as §1

With `CC1=C(CC(=O)NCCN2CCOCC2)c2cc(F)ccc2/C1=C\c1ccc(Oc2ccc(F)cc2)cc1` [C39, (Z)-2-(5-Fluoro-1-(4-(4-fluorophenoxy)benzylidene)-2-methyl-1H-inden-3-yl)-N-(2-morpholinoethyl)acetamide] the inhibition at 3.3 µM [1] was less than 30%, the inhibition at 10 µM [1] was less than 30% and the inhibition at 30 µM [1] was less than 30%. For the same molecule, the inhibition at 10 µM [2] was 50 to 80%, the inhibition at 3.3 µM [3] was less than 30% and the inhibition at 10 µM [3] was less than 30%. It also gave an inhibition at 30 µM [3] of less than 30%, an inhibition at 3.3 µM [4] of less than 30% and an inhibition at 10 µM [4] of 30 to 50%. It also gave an inhibition at 30 µM [4] of 30 to 50%, an inhibition at 3.3 µM (HepG2 (liver cancer)) of less than 30% and an inhibition at 10 µM (HepG2 (liver cancer)) of less than 30%. The inhibition at 30 µM (HepG2 (liver cancer)) was less than 30%, the inhibition at 3.3 µM (SW480 (colon cancer)) was less than 30% and the inhibition at 10 µM (SW480 (colon cancer)) was less than 30%. The inhibition at 3.3 µM [5] was less than 30%, the inhibition at 10 µM [5] was less than 30% and the inhibition at 3.3 µM (HeLa (cervical cancer)) was less than 30%. For the same molecule, the inhibition at 10 µM (HeLa (cervical cancer)) was less than 30% and the inhibition at 30 µM (HeLa (cervical cancer)) was less than 30%.
In the case of `COc1ccc(Oc2ccc(/C=C3/C(C)=C(CC(=O)O)c4cc(F)ccc43)cn2)cc1` [C35, (Z)-2-(5-Fluoro-1-((6-(4-methoxyphenoxy)pyridin-3-yl)methylene)-2-methyl-1H-inden-3-yl)acetic acid], the inhibition at 3.3 µM [1] was less than 30%, the inhibition at 10 µM [1] was less than 30% and the inhibition at 30 µM [1] was less than 30%. It also gave an inhibition at 10 µM [2] of less than 30%, an inhibition at 3.3 µM [3] of less than 30% and an inhibition at 10 µM [3] of less than 30%. It also gave an inhibition at 30 µM [3] of less than 30%, an inhibition at 3.3 µM [4] of no less than 50% and an inhibition at 10 µM [4] of no less than 50%. The inhibition at 30 µM [4] was 30 to 50%, the inhibition at 3.3 µM (HepG2 (liver cancer)) was less than 30% and the inhibition at 10 µM (HepG2 (liver cancer)) was less than 30%. The inhibition at 30 µM (HepG2 (liver cancer)) was less than 30%, the inhibition at 3.3 µM (SW480 (colon cancer)) was less than 30% and the inhibition at 10 µM (SW480 (colon cancer)) was 30 to 50%. It also gave an inhibition at 30 µM (SW480 (colon cancer); Compound concentration: 30 μM, read-out: Antiproliferative activity in cancerous cells, SW480) of less than 30%, an inhibition at 3.3 µM [5] of less than 30% and an inhibition at 10 µM [5] of less than 30%. It also gave an inhibition at 30 µM ([5]; Compound concentration: 30 μM, read-out: Antiproliferative activity in cancerous cells, MDA-MB-231) of 30 to 50%, an inhibition at 3.3 µM (HeLa (cervical cancer)) of less than 30% and an inhibition at 10 µM (HeLa (cervical cancer)) of less than 30%. It also gave an inhibition at 30 µM (HeLa (cervical cancer)) of less than 30%.
`CC1=C(CC(=O)O)c2cc(F)ccc2/C1=C\c1cccc(COc2cccc(C(C)(C)C)c2)c1` [B21, (Z)-2-(1-(3-((3-(Tert-butyl)phenoxy)methyl)benzylidene)-5-fluoro-2-methyl-1H-inden-3-yl)acetic acid] showed an inhibition at 3.3 µM [1] of less than 30%, an inhibition at 10 µM [1] of no less than 50% and an inhibition at 10 µM [2] greater than 80%. For the same molecule, the inhibition at 3.3 µM [3] was less than 30%, the inhibition at 10 µM [3] was 30 to 50% and the inhibition at 3.3 µM [4] was less than 30%. For the same molecule, the inhibition at 10 µM [4] was no less than 50%, the inhibition at 3.3 µM (HepG2 (liver cancer)) was less than 30% and the inhibition at 10 µM (HepG2 (liver cancer)) was 30 to 50%. For the same molecule, the inhibition at 3.3 µM (SW480 (colon cancer)) was less than 30%, the inhibition at 10 µM (SW480 (colon cancer)) was 30 to 50% and the inhibition at 3.3 µM [5] was no less than 50%. It also gave an inhibition at 10 µM [5] of no less than 50%, an inhibition at 3.3 µM (HeLa (cervical cancer)) of less than 30% and an inhibition at 10 µM (HeLa (cervical cancer)) of no less than 50%.
`O=C(O)CC1=C(CC2CCCC2)/C(=C/c2ccc(COc3ccccc3)cc2)c2ccc(F)cc21` [A3, (Z)-2-(2-(Cyclopentylmethyl)-5-fluoro-1-(4-(phenoxymethyl)benzylidene)-1H-inden-3-yl)acetic acid] gave an inhibition at 3.3 µM [1] of no less than 50%, an inhibition at 10 µM [1] of no less than 50% and an inhibition at 10 µM [2] greater than 80%. For the same molecule, the inhibition at 3.3 µM [3] was no less than 50%, the inhibition at 10 µM [3] was no less than 50% and the inhibition at 3.3 µM [4] was 30 to 50%. It also gave an inhibition at 10 µM [4] of no less than 50%, an inhibition at 3.3 µM (HepG2 (liver cancer)) of 30 to 50% and an inhibition at 10 µM (HepG2 (liver cancer)) of no less than 50%. The inhibition at 3.3 µM (SW480 (colon cancer)) was no less than 50%, the inhibition at 10 µM (SW480 (colon cancer)) was no less than 50% and the inhibition at 3.3 µM [5] was no less than 50%. The inhibition at 10 µM [5] was no less than 50%, the inhibition at 3.3 µM (HeLa (cervical cancer)) was 30 to 50% and the inhibition at 10 µM (HeLa (cervical cancer)) was no less than 50%.
